Target: T1, human ferroportin (Homo sapiens, UniProt Q9NP59)
T1 construct: luciferase reporter (read with the Nano-Glo Luciferase Assay System); expressed in transfected cells; host or cells: CHO cells, stably transfected, expression induced with doxycycline
T1 sequence (Q9NP59 1-571): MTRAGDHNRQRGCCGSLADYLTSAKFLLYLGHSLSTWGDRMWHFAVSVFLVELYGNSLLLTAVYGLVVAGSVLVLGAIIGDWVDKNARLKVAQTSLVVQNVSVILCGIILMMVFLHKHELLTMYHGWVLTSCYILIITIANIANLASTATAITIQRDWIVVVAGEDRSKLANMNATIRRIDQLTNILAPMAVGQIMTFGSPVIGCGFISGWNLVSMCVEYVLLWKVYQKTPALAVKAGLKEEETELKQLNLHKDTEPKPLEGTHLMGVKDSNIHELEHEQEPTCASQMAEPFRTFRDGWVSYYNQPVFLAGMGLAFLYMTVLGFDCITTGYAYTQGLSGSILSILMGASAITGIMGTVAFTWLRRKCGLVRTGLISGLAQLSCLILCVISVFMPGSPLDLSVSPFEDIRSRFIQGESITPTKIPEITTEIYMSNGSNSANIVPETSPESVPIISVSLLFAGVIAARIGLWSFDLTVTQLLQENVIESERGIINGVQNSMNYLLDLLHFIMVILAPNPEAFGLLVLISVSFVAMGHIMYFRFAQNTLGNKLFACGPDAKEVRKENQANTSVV
Test: Biological in-vitro ferroportin internalization assay (luciferase reporter)
Type: cell-based
Conditions: average pEC50; stably-transfected CHO cell line expressing human ferroportin tagged to a luciferase reporter; 6 h incubation with test compound
Method in brief: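 Read-out is Nano-Glo luciferase signal after 6 h compound exposure, with average pEC50 derived. Cells are a stable CHO line carrying luciferase-tagged human ferroportin, pre-loaded 24 h with ferric ammonium citrate and doxycycline-induced for 24 h.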

Row | pEC50 | SMILES
1 | 7.8 | C[C@@H](CN(C)C)Oc1ccnc(-c2nc3c(c(N(C)CC(=O)NC(C)(C)C)n2)CCC3)c1 [Compound 402, N-tert-butyl-2-{[2-(4-{[(2S)-1-(dimethylamino)propan-2-yl]oxy}pyridin-2-yl)-5H,6H,7H-cyclopenta[d]pyrimidin-4-yl](methyl)amino}acetamide]
2 | 7.6 | CN(C)C(=O)COc1ccnc(-c2nc3c(c(N(C)CC(=O)NC(C)(C)C)n2)CCC3)c1 [Compound 403, 2-{[2-(4-{[(tert-butylcarbamoyl)methyl](methyl)amino}-5H,6H,7H-cyclopenta[d]pyrimidin-2-yl)pyridin-4-yl]oxy}-N,N-dimethylacetamide]
3 | 8 | CN(CC(=O)NC(C)(C)C)c1nc(-c2cc(OCC(C)(C)N(C)C)ccn2)nc2c1CCC2 [Compound 404, N-tert-butyl-2-[(2-{4-[2-(dimethylamino)-2-methylpropoxy]pyridin-2-yl}-5H,6H,7H-cyclopenta[d]pyrimidin-4-yl)(methyl)amino]acetamide]
4 | 8.3 | CN(CC(=O)NC(C)(C)C)c1nc(-c2cc(OCC3(O)CCOCC3)ccn2)nc2c1CCC2 [Compound 405, N-tert-butyl-2-[(2-{4-[(4-hydroxyoxan-4-yl)methoxy]pyridin-2-yl}-5H,6H,7H-cyclopenta[d]pyrimidin-4-yl)(methyl)amino]acetamide]
5 | 7.7 | C[C@H](CN(C)C)Oc1ccnc(-c2nc3c(c(N(C)CC(=O)NC(C)(C)C)n2)CCC3)c1 [Compound 406, N-tert-butyl-2-{[2-(4-{[(2R)-1-(dimethylamino)propan-2-yl]oxy}pyridin-2-yl)-5H,6H,7H-cyclopenta[d]pyrimidin-4-yl](methyl)amino}acetamide]
6 | 6.6 | CN(C)CC(C)(C)Oc1ccnc(-c2nc3c(c(N(C)CC(=O)NC(C)(C)C)n2)CCC3)c1 [Compound 407, N-tert-butyl-2-{[2-(4-{[1-(dimethylamino)-2-methylpropan-2-yl]oxy}pyridin-2-yl)-5H,6H,7H-cyclopenta[d]pyrimidin-4-yl](methyl)amino}acetamide]
7 | 8.5 | C[C@H](C(=O)NC(C)(C)C)N(C)c1nc(-c2cc(OCCN(C)C)ccn2)nc2c1CCC2 [Compound 408, (2R)—N-tert-butyl-2-[(2-{4-[2-(dimethylamino)ethoxy]pyridin-2-yl}-5H,6H,7H-cyclopenta[d]pyrimidin-4-yl)(methyl)amino]propanamide]
8 | 7.6 | CC(C)(O)COc1ccnc(-c2nc3c(c(NCC(=O)NC(C)(C)C)n2)CCC3)c1 [Compound 409, N-tert-butyl-2-({2-[4-(2-hydroxy-2-methylpropoxy)pyridin-2-yl]-5H,6H,7H-cyclopenta[d]pyrimidin-4-yl}amino)acetamide]
9 | 7.3 | CN(C)CCOc1ccnc(-c2nc3c(c(N(C)CC(=O)Nc4cnn(C5CC5)c4)n2)CCC3)c1 [Compound 410, N-(1-cyclopropyl-1H-pyrazol-4-yl)-2-[(2-{4-[2-(dimethylamino)ethoxy]pyridin-2-yl}-5H,6H,7H-cyclopenta[d]pyrimidin-4-yl)(methyl)amino]acetamide]
10 | 8.2 | CN(CC(=O)NC(C)(C)C)c1nc(-c2cc(OC[C@H]3CCCN3C)ccn2)nc2c1CCC2 [Compound 411, N-tert-butyl-2-{methyl[2-(4-{[(2R)-1-methylpyrrolidin-2-yl]methoxy}pyridin-2-yl)-5H,6H,7H-cyclopenta[d]pyrimidin-4-yl]amino}acetamide]
11 | 8.1 | CN(CC(=O)NC(C)(C)C)c1nc(-c2cc(OC[C@@H]3CCCN3C)ccn2)nc2c1CCC2 [Compound 412, N-tert-butyl-2-{methyl[2-(4-{[(2S)-1-methylpyrrolidin-2-yl]methoxy}pyridin-2-yl)-5H,6H,7H-cyclopenta[d]pyrimidin-4-yl]amino}acetamide]
12 | 8 | CN(C)CCOc1ccnc(-c2nc3c(c(N(C)CC(=O)NC(C)(C)C)n2)C(C)(C)CC3)c1 [Compound 413, N-tert-butyl-2-[(2-{4-[2-(dimethylamino)ethoxy]pyridin-2-yl}-5,5-dimethyl-5H,6H,7H-cyclopenta[d]pyrimidin-4-yl)(methyl)amino]acetamide]
13 | 8.3 | CN(CC(=O)NC(C)(C)C)c1nc(-c2cc(OC[C@@H]3COC(C)(C)O3)ccn2)nc2c1CCC2 [Compound 414, N-tert-butyl-2-{[2-(4-{[(4R)-2,2-dimethyl-1,3-dioxolan-4-yl]methoxy}pyridin-2-yl)-5H,6H,7H-cyclopenta[d]pyrimidin-4-yl](methyl)amino}acetamide]
14 | 8 | CN1CC(Oc2ccnc(-c3nc4c(c(N(C)CC(=O)NC(C)(C)C)n3)CCC4)c2)C1 [Compound 416, N-tert-butyl-2-[methyl(2-{4-[(1-methylazetidin-3-yl)oxy]pyridin-2-yl}-5H,6H,7H-cyclopenta[d]pyrimidin-4-yl)amino]acetamide]
15 | 7.1 | CN(C)CCOc1ccnc(-c2nc3c(c(N(C)CC(=O)N4CCCC4)n2)CCC3)c1 [Compound 417, 2-[(2-{4-[2-(dimethylamino)ethoxy]pyridin-2-yl}-5H,6H,7H-cyclopenta[d]pyrimidin-4-yl)(methyl)amino]-1-(pyrrolidin-1-yl)ethan-1-one]
16 | 7.5 | CN(C)CCOc1ccnc(-c2nc3c(c(N(C)CC(=O)NC4(C(F)(F)F)CC4)n2)CCC3)c1 [Compound 418, 2-[(2-{4-[2-(dimethylamino)ethoxy]pyridin-2-yl}-5H,6H,7H-cyclopenta[d]pyrimidin-4-yl)(methyl)amino]-N-[1-(trifluoromethyl)cyclopropyl]acetamide]
17 | 7.6 | CNCCOc1ccnc(-c2nc3c(c(N(C)CC(=O)NC(C)(C)C)n2)CCC3)c1 [Compound 419, N-tert-butyl-2-[methyl(2-{4-[2-(methylamino)ethoxy]pyridin-2-yl}-5H,6H,7H-cyclopenta[d]pyrimidin-4-yl)amino]acetamide]
18 | 8 | CN(CC(=O)N1CCCC1)c1nc(-c2cc(OCC(C)(C)O)ccn2)nc2c1CCC2 [Compound 420, 2-({2-[4-(2-hydroxy-2-methylpropoxy)pyridin-2-yl]-5H,6H,7H-cyclopenta[d]pyrimidin-4-yl}(methyl)amino)-1-(pyrrolidin-1-yl)ethan-1-one]
19 | 8.2 | CN(CC(=O)NC1CCCC1)c1nc(-c2cc(OCC(C)(C)O)ccn2)nc2c1CCC2 [Compound 421, N-cyclopentyl-2-({2-[4-(2-hydroxy-2-methylpropoxy)pyridin-2-yl]-5H,6H,7H-cyclopenta[d]pyrimidin-4-yl}(methyl)amino)acetamide]
20 | 7.4 | CN(CC(=O)N[C@@H]1CCOC1)c1nc(-c2cc(OCC(C)(C)O)ccn2)nc2c1CCC2 [Compound 422, 2-({2-[4-(2-hydroxy-2-methylpropoxy)pyridin-2-yl]-5H,6H,7H-cyclopenta[d]pyrimidin-4-yl}(methyl)amino)-N-[(3R)-oxolan-3-yl]acetamide]
21 | 7.7 | CN(CC(=O)NC1(C(F)(F)F)CC1)c1nc(-c2cc(OCC(C)(C)N(C)C)ccn2)nc2c1CCC2 [Compound 423, 2-[(2-{4-[2-(dimethylamino)-2-methylpropoxy]pyridin-2-yl}-5H,6H,7H-cyclopenta[d]pyrimidin-4-yl)(methyl)amino]-N-[1-(trifluoromethyl)cyclopropyl]acetamide]

— patent US11746100B2 (GLOBAL BLOOD THERAPEUTICS, INC., priority 2020, dated 2023)
